Experimental data: PMC10009787 (ACS Medicinal Chemistry Letters, 2023)
Read-outs that look alike come from different tables or passages of the source.

Tests used:
LYN A = LYN A (Homo sapiens, UniProt P07948); test: SelectScreen kinase profiling; format: biochemical; conditions: average of duplicate
ERBB2 (HER2) = ERBB2 (HER2) (Homo sapiens, UniProt P04626); test: SelectScreen kinase profiling; format: biochemical; conditions: average of duplicate
TTK = TTK (Homo sapiens, UniProt P33981); test: SelectScreen kinase profiling; format: biochemical; conditions: average of duplicate
Chain of TTK (P33981 whole entry): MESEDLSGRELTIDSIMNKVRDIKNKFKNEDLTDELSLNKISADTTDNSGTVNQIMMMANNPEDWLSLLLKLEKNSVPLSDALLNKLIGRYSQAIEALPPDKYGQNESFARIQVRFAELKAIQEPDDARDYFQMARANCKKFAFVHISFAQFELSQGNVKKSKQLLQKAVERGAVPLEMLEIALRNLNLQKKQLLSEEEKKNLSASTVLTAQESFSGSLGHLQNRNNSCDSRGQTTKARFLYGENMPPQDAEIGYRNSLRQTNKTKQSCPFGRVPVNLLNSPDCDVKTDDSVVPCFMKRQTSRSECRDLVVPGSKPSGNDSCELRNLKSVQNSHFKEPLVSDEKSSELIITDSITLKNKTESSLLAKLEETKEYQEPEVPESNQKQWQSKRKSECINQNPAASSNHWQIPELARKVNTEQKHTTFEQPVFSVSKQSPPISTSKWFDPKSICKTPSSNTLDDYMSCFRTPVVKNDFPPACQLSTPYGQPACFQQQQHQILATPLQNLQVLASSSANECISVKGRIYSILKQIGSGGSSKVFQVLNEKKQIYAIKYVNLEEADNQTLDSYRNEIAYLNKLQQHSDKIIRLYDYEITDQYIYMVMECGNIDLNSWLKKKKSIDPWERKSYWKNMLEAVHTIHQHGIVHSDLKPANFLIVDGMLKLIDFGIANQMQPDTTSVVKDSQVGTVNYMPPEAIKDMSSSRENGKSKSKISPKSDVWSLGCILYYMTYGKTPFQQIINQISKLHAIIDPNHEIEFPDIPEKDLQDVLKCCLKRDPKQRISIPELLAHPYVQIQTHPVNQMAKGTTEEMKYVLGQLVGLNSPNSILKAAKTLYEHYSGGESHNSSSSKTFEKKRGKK

ERN1 = ERN1 (Homo sapiens, UniProt O75460); test: SelectScreen kinase profiling; format: biochemical; conditions: average of duplicate
HCK = HCK (Homo sapiens, UniProt P08631); test: AssayQuant kinact/Ki profiling, PhosphoSens CSox-based kinetic assay
Chain of HCK (P08631 whole entry): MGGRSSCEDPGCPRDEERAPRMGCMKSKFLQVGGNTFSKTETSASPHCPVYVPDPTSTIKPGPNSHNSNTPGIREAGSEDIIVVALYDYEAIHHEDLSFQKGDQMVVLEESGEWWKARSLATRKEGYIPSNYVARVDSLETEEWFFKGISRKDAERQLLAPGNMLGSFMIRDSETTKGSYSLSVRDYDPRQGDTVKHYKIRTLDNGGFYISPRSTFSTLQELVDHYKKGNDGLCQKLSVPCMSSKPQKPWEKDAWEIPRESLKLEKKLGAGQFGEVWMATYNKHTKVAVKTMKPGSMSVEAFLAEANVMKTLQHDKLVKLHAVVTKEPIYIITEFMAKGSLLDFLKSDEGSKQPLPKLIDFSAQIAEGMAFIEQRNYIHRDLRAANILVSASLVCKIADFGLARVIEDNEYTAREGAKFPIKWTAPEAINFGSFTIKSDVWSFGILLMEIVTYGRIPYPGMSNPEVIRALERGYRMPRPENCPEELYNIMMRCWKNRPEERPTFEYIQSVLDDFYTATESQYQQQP

BTK = BTK (Homo sapiens, UniProt Q06187); test: Western blot, phosphorylation of BTK in Jeko-1 cells; format: cell-based; conditions: 2 h
Chain of BTK (Q06187 whole entry): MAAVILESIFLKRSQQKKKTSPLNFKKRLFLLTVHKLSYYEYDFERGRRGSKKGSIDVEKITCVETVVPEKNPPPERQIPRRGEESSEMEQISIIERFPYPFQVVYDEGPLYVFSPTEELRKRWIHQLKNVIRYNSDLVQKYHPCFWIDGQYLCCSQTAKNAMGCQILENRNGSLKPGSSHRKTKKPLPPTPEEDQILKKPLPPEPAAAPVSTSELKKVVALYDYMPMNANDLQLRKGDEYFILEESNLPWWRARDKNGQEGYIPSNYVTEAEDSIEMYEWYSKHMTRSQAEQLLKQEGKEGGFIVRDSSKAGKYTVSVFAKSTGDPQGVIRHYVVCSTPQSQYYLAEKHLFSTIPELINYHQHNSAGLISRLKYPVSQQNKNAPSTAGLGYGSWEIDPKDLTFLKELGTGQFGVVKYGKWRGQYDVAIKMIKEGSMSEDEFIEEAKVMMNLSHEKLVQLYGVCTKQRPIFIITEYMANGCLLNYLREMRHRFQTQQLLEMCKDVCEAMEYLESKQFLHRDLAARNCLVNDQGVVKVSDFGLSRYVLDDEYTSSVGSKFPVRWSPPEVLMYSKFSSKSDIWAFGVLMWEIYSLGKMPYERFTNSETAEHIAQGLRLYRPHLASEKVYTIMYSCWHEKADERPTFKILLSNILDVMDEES

PDGFRB (PDGFR beta) = PDGFRB (PDGFR beta) (Homo sapiens, UniProt P09619); test: SelectScreen kinase profiling; format: biochemical; conditions: average of duplicate
Chain of PDGFRB (PDGFR beta) (P09619 33-1106): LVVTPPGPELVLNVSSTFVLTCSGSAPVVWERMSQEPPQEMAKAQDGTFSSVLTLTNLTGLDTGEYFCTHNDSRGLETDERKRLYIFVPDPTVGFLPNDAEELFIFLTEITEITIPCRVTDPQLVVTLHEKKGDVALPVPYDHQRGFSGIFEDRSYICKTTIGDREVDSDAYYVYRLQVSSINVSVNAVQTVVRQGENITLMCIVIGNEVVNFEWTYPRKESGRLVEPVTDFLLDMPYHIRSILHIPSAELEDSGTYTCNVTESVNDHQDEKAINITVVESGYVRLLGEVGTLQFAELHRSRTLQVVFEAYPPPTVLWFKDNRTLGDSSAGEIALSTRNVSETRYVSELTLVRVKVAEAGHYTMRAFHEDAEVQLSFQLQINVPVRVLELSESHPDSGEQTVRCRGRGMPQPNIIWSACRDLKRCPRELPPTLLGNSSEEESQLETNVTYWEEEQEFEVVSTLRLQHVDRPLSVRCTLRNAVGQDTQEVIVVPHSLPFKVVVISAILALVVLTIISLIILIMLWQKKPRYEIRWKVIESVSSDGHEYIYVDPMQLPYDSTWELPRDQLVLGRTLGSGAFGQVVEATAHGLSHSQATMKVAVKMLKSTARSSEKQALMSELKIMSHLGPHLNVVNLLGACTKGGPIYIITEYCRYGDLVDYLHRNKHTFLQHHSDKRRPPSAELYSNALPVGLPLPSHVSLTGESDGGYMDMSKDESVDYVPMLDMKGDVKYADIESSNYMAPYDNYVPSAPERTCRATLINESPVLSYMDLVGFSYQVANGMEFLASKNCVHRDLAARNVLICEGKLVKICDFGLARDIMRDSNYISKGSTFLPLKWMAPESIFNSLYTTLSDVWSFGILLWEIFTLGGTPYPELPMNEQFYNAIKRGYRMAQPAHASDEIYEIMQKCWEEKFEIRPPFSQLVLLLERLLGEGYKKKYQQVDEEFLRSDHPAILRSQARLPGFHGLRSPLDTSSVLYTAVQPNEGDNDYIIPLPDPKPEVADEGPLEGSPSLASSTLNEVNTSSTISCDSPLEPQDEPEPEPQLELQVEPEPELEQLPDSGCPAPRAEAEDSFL

TXK = TXK (Homo sapiens, UniProt P42681); test: SelectScreen kinase profiling; format: biochemical; conditions: average of duplicate
Chain of TXK (P42681 whole entry): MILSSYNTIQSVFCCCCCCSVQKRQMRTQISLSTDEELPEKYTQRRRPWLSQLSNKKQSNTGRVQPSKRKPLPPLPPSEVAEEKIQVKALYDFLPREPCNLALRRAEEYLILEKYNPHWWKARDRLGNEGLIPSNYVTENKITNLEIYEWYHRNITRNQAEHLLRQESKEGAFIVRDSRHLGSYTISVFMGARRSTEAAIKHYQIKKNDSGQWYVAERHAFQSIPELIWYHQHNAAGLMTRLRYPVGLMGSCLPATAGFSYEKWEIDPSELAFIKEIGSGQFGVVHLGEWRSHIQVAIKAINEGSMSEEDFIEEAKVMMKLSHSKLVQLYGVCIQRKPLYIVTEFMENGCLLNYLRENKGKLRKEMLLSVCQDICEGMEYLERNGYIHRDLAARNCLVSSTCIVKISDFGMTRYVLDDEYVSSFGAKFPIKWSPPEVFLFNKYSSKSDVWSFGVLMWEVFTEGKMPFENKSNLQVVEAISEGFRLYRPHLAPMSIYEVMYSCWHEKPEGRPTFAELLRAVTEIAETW

EGFR (ErbB1) = EGFR (ErbB1) (Homo sapiens, UniProt P00533); test: SelectScreen kinase profiling / Z′-Lyte kinase assay
Chain of EGFR (ErbB1) (P00533 668-1210 limits assumed): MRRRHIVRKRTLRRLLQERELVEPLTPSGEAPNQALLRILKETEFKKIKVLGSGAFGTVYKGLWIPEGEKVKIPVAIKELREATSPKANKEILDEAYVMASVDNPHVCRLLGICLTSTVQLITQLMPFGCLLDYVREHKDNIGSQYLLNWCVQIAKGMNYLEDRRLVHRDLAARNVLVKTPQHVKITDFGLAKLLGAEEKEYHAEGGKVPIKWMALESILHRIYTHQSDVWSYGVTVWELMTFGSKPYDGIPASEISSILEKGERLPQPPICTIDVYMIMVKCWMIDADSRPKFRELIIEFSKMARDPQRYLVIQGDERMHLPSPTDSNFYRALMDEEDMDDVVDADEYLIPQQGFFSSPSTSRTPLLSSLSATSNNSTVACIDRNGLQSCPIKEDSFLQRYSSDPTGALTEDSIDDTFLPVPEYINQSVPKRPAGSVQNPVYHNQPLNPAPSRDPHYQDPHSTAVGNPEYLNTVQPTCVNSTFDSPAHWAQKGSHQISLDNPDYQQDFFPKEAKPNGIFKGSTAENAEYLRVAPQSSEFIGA

RIPK2 = RIPK2 (Homo sapiens, UniProt O43353); test: SelectScreen kinase profiling; format: biochemical; conditions: average of duplicate
KIT V559D = KIT V559D (Homo sapiens, UniProt P10721, V559D); test: SelectScreen kinase profiling; format: biochemical; conditions: average of duplicate
PDGFRA (PDGFR alpha) = PDGFRA (PDGFR alpha) (Homo sapiens, UniProt P16234); test: SelectScreen kinase profiling; format: biochemical; conditions: average of duplicate
MAP2K5 (MEK5) = MAP2K5 (MEK5) (Homo sapiens, UniProt Q13163); test: SelectScreen kinase profiling; format: biochemical; conditions: average of duplicate
TEC = TEC (Homo sapiens, UniProt P42680); test: SelectScreen kinase profiling; format: biochemical; conditions: average of duplicate
JAK3 = JAK3 (Homo sapiens, UniProt P52333); test: SelectScreen kinase profiling / Z′-Lyte kinase assay
Chain of JAK3 (P52333 781-1124 limits assumed): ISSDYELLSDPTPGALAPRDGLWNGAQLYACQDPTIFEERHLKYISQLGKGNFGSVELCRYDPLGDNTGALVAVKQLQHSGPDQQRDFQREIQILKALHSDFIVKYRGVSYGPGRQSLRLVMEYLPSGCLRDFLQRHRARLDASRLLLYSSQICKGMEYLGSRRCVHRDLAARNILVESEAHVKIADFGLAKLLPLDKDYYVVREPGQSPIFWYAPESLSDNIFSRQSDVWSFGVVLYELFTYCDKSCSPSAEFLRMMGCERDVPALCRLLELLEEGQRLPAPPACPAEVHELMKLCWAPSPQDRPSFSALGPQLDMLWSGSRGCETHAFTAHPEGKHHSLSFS

BMX = biological target: T1, BMX (Homo sapiens, UniProt P51813); test: AssayQuant kinact/Ki profiling, PhosphoSens CSox-based kinetic assay; format: biochemical; parameters: purchased ThermoFisher / Life Technologies SelectScreen PV3371
T1 sequence (P51813 1-675): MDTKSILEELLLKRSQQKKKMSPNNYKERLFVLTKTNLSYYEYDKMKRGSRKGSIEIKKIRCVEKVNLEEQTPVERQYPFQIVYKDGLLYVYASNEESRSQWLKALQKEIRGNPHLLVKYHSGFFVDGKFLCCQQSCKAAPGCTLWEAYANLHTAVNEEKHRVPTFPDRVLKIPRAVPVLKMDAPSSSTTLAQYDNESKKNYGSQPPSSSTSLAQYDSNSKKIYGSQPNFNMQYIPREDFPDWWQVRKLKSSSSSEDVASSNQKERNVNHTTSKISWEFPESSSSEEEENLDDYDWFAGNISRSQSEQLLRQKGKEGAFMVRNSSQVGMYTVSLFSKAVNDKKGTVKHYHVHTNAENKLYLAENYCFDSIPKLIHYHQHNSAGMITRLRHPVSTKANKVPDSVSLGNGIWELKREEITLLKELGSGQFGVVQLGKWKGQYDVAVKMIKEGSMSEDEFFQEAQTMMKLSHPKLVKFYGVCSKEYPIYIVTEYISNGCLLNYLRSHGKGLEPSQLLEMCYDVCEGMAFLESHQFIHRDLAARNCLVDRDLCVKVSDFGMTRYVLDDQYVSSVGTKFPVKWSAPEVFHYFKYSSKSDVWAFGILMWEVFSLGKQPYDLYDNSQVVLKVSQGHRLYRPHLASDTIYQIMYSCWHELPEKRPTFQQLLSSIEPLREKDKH

Chain of LYN A (P07948 whole entry): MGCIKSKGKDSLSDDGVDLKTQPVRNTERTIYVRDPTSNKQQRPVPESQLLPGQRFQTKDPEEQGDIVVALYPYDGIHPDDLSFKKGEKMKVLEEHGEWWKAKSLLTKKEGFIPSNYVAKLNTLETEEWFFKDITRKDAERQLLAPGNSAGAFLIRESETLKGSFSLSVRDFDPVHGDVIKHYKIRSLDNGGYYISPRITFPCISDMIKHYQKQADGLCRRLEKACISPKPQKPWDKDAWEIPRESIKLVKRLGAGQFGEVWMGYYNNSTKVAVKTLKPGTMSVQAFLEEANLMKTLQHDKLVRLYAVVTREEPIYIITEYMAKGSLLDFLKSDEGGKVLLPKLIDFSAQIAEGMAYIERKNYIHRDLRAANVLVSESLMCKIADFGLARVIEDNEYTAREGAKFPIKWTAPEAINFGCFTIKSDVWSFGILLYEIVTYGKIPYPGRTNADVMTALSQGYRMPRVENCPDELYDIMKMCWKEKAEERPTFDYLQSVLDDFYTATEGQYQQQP

- inhibition at 1 µM (LYN A): 85%
- inhibition at 1 µM (ERBB2 (HER2)): 71%
- inhibition at 1 µM (TTK): 2%
- inhibition at 1 µM (ERN1): 2%
- kinact (HCK; read-out: HCK kinact): 0.0009 s⁻¹
- kinact/KI (HCK; read-out: HCK kinact/KI): 1730 M⁻¹ s⁻¹
- pBTK/BTK ratio normalized to the DMSO control (BTK; 1 uM): 0.54
- pBTK/BTK ratio normalized to the DMSO control (BTK; 10 uM): 0.21
- pBTK/BTK ratio normalized to the DMSO control (BTK; .01 uM): 0.26
- pBTK/BTK ratio normalized to the DMSO control (BTK; .1 uM): 0.39
- inhibition at 1 µM (PDGFRB (PDGFR beta)): 6%
- inhibition at 1 µM (TXK): 99%
- IC50 (EGFR (ErbB1)): 197 nM
- inhibition at 1 µM (EGFR (ErbB1)): 89%
- Hillslope (EGFR (ErbB1); EGFR IC50 curve): 1.08
- inhibition at 0.000495 µM (EGFR (ErbB1); read-out: % Inhibition Point 1): -6%
- inhibition at 0.00152 µM (EGFR (ErbB1); read-out: % Inhibition Point 1): -4%
- inhibition at 0.00457 µM (EGFR (ErbB1); read-out: % Inhibition Point 1): -2%
- inhibition at 0.0137 µM (EGFR (ErbB1); read-out: % Inhibition Point 1): 4%
- inhibition at 0.0412 µM (EGFR (ErbB1); read-out: % Inhibition Point 1): 10%
- inhibition at 0.123 µM (EGFR (ErbB1); read-out: % Inhibition Point 1): 38%
- inhibition at 0.37 µM (EGFR (ErbB1); read-out: % Inhibition Point 1): 60%
- inhibition at 1.11 µM (EGFR (ErbB1); read-out: % Inhibition Point 1): 89%
- inhibition at 3.33 µM (EGFR (ErbB1); read-out: % Inhibition Point 1): 92%
- inhibition at 10 µM (EGFR (ErbB1); read-out: % Inhibition Point 1): 97%
- inhibition at 0.000495 µM (EGFR (ErbB1); read-out: % Inhibition Point 2): -1%
- inhibition at 0.00152 µM (EGFR (ErbB1); read-out: % Inhibition Point 2): -6%
- inhibition at 0.00457 µM (EGFR (ErbB1); read-out: % Inhibition Point 2): -4%
- inhibition at 0.0137 µM (EGFR (ErbB1); read-out: % Inhibition Point 2): 5%
- inhibition at 0.0412 µM (EGFR (ErbB1); read-out: % Inhibition Point 2): 8%
- inhibition at 0.123 µM (EGFR (ErbB1); read-out: % Inhibition Point 2): 35%
- inhibition at 0.37 µM (EGFR (ErbB1); read-out: % Inhibition Point 2): 63%
- inhibition at 1.11 µM (EGFR (ErbB1); read-out: % Inhibition Point 2): 82%
- inhibition at 3.33 µM (EGFR (ErbB1); read-out: % Inhibition Point 2): 96%
- inhibition at 10 µM (EGFR (ErbB1); read-out: % Inhibition Point 2): 95%
- inhibition at 1 µM (RIPK2): 95%
- inhibition at 1 µM (KIT V559D): 14%
- inhibition at 1 µM (PDGFRA (PDGFR alpha)): 16%
- inhibition at 1 µM (MAP2K5 (MEK5)): 32%
- inhibition at 1 µM (TEC): 100%
- IC50 (JAK3): 874 nM
- inhibition at 1 µM (JAK3): 65%
- JAK3, BTK/Kinase (JAK3; BTK selectivity from IC50 values): 934 x
- Hillslope (JAK3; JAK3 IC50 curve): 1.09
- inhibition at 0.000495 µM (JAK3; read-out: % Inhibition Point 1): -1%
- inhibition at 0.00152 µM (JAK3; read-out: % Inhibition Point 1): -7%
- inhibition at 0.00457 µM (JAK3; read-out: % Inhibition Point 1): 2%
- inhibition at 0.0137 µM (JAK3; read-out: % Inhibition Point 1): -5%
- inhibition at 0.0412 µM (JAK3; read-out: % Inhibition Point 1): 6%
- inhibition at 0.123 µM (JAK3; read-out: % Inhibition Point 1): 9%
- inhibition at 0.37 µM (JAK3; read-out: % Inhibition Point 1): 28%
- inhibition at 1.11 µM (JAK3; read-out: % Inhibition Point 1): 55%
- inhibition at 3.33 µM (JAK3; read-out: % Inhibition Point 1): 89%
- inhibition at 10 µM (JAK3; read-out: % Inhibition Point 1): 98%
- inhibition at 0.000495 µM (JAK3; read-out: % Inhibition Point 2): -4%
- inhibition at 0.00152 µM (JAK3; read-out: % Inhibition Point 2): -5%
- inhibition at 0.00457 µM (JAK3; read-out: % Inhibition Point 2): 0%
- inhibition at 0.0137 µM (JAK3; read-out: % Inhibition Point 2): -3%
- inhibition at 0.0412 µM (JAK3; read-out: % Inhibition Point 2): -2%
- inhibition at 0.123 µM (JAK3; read-out: % Inhibition Point 2): 10%
- inhibition at 0.37 µM (JAK3; read-out: % Inhibition Point 2): 27%
- inhibition at 1.11 µM (JAK3; read-out: % Inhibition Point 2): 56%
- inhibition at 3.33 µM (JAK3; read-out: % Inhibition Point 2): 85%
- inhibition at 10 µM (JAK3; read-out: % Inhibition Point 2): 93%
- kinact/KI (BMX; 5.0 nM enzyme, 1000 µM ATP, two step fit): 81000 M⁻¹ s⁻¹
- BMX kinact/Ki (BMX; 5.0 nM enzyme, 1000 µM ATP, two step fit, listed as Monomethyl Analog): 80,800 M^-1S^-1
- kinact (BMX; fitted value, two step): 0.0065 s⁻¹
Structure (SMILES): C=CC(=O)N1CCC[C@@H](n2nc(-c3ccc(Oc4ccccc4)cc3C)c3c(N)ncnc32)C1 [Compound 2, (R)-1-(3-(4-amino-3-(2-methyl-4-phenoxyphenyl)-1H-pyrazolo[3,4-d]pyrimidin-1-yl)piperidin-1-yl)prop-2-en-1-one]
